According to US20090176817A1, “Method of Treatment of Diarrhea-Predominant Irritable Bowel Syndrome in a Subject” (priority 2005, published 2009):
Like-named read-outs stand apart in the source and are kept apart here.

Columns and labels:
Type in all cases: in vivo, human
[1] = test system: diarrhea-predominant IBS subjects; details: for Percentage of Subjects Who Worsened from Baseline: Daily Abdominal Pain / Percentage of Subjects Who Worsened from Baseline: Daily Urgency: S241.3.009, observed value
Text: The primary efficacy parameter was the overall response rate for IBS symptoms, based on the weekly question concerning adequate relief of IBS symptoms (abdominal pain/discomfort, abnormal bowel habits) over the 26 weeks period. A responder was a subject who responded “yes” at least 50% of the time during his/her treatment period, with minimum treatment duration of four weeks. The two main secondary efficacy parameters were overall responder rate based on the weekly question on adequate relief of abdominal pain/discomfort and abnormal bowel habits during the 26-week treatment period. The onset of action of cilansetron was also examined using daily diary data (stool frequency, and ratings of urgency and severity) during the initial 8 weeks of trial participation. An additional key secondary efficacy parameter was the number of months (one month equals four weeks) up to six months (24-weeks) that a subject was a responder for IBS symptoms, where a responder was defined as a subject who answered the weekly question with “yes” at least twice for that month. The responder rate for the weekly diary questions on adequate relief at each month and all months, the adequate relief rate, the number of subjects with adequate relief by week, daily diary questions, IBS-QOL scores, and the interruption of activities were also assessed. Safety was evaluated by physical examination, ECG, vital signs, laboratory evaluations, concomitant medications, and AEs.
(§1) Studies S24 1.3.OO6, S24 1.3.0 1 1, and S24 1.3.009 used the following efficacy measurements: • The subjects answered the following three questions with “yes” or “no” using a phone diary at the end of each week: • a) During the last week, did you experience adequate relief of your IBS symptoms, such as abdominal pain, abdominal discomfort, abnormal bowel habits? • b) During the last week, did you experience adequate relief of your abdominal pain and/or discomfort? • c) During the last week, did you experience adequate relief of your abnormal bowel habits? • The subjects rated the following symptoms using the phone diary at the end of each day: • abdominal pain/discomfort (five-point scale); • stool consistency (seven-point Bristol Stool Scale); • stool frequency (number of bowel movements each day); • urgency (five-point scale); • straining (yes or no); • feeling of incomplete defecation (yes or no); • bloating or feeling of abdominal distension (five-point scale). • In Studies S241 A006 and S241.3.009, subjects completed the IBS-QOL Survey at Baseline (Day 1) and at the end of treatment. In Study S24 1.3.0 1 1, subjects completed the IBS-QOL Survey at Baseline (Day 1), at the end of the three-month treatment period, and at the end of rerandomized treatment.
Other secondary efficacy parameters for all three studies included: • Responder rate for the weekly diary questions on adequate relief at each month, where a responder for a month (monthly responder) was defined as a subject who answered the weekly question with “yes” at least twice for that month. The responder rate was the percentage of responders within a treatment group. The all-month responder rate for the weekly diary questions on adequate relief was also evaluated, where an all-month responder was defined as a subject who answered the weekly question with “yes” at least twice for each month. […]

[2] = test system: diarrhea-predominant IBS subjects; assay: Study S241.3.006: IBS-QOL; details: for Percentage of Subjects Who Worsened from Baseline: IBS-QOL Overall Score: S241.3.006, 2 mg TID, observed value
Text: as §1
(§2) Other secondary efficacy parameters for all three studies included: • Responder rate for the weekly diary questions on adequate relief at each month, where a responder for a month (monthly responder) was defined as a subject who answered the weekly question with “yes” at least twice for that month. The responder rate was the percentage of responders within a treatment group. The all-month responder rate for the weekly diary questions on adequate relief was also evaluated, where an all-month responder was defined as a subject who answered the weekly question with “yes” at least twice for each month. The all-month responder rate was the percentage of all-month responders within a treatment group; • Adequate relief rate for the weekly diary questions was calculated for each subject as the number of weekly assessments with adequate relief (“yes”) divided by the total number of weekly assessments; • Percentage of subjects with adequate relief for the weekly diary questions at each week; • Daily diary questions regarding abdominal pain/discomfort (five-point scale), stool consistency (seven-point scale), stool frequency (number of bowel movements each day), straining (yes or no), urgency (five-point scale), feeling of incomplete evacuation (yes or no), and bloating or feeling of abdominal distention (five-point scale); • QOL data assessed by the IBS-QOL questionnaire; and • Question to determine the interruption of activities.

[3] = test system: diarrhea-predominant IBS subjects; assay: Study S241.3.006: interruption of activities assessment; details: for Percentage of Subjects Who Worsened from Baseline: Interruption of Activities: S241.3.006, 2 mg TID, observed value
Text: as §1, §2

Cc1nccn1C[C@H]1CCc2c(c3cccc4c3n2CCC4)C1=O [Cilansetron, (R)-(−)-4,5,6,8,9,10-hexahydro-10-[(2-methyl-1H-imidazol-1-yl)methyl]-11H-pyrido-[3,2,1-jk]-carbazol-11-one]
Mean number of stools per day at end of treatment ([1]; 2 mg TID): 1.96 stools per day
Stools per day ([1]; Day 2 of treatment): 2.97 stools per days
Median rate of pain-free days ([1]; Month 1 to Month 3): 0.13
Median rate of urgency-free days ([1]; Month 1 to Month 3): 0.05
Median rate of pain-free days ([1]; Month 4 to Month 6): 0.31
Median rate of urgency-free days ([1]; Month 4 to Month 6): 0.10
Percentage of Subjects Who Worsened from Baseline: Daily Abdominal Pain ([1]; Weeks 1-2, 2 mg TID): 13%
Percentage of Subjects Who Worsened from Baseline: Daily Urgency ([1]; Weeks 1-2, 2 mg TID): 7%
Percentage of Subjects Who Worsened from Baseline: Daily Abdominal Pain ([1]; Weeks 3-4, 2 mg TID): 8%
Percentage of Subjects Who Worsened from Baseline: Daily Urgency ([1]; Weeks 3-4, 2 mg TID): 5%
Percentage of Subjects Who Worsened from Baseline: Daily Abdominal Pain ([1]; Weeks 5-6, 2 mg TID): 8%
Percentage of Subjects Who Worsened from Baseline: Daily Urgency ([1]; Weeks 5-6, 2 mg TID): 5%
Percentage of Subjects Who Worsened from Baseline: Daily Abdominal Pain ([1]; Weeks 7-8, 2 mg TID): 7%
Percentage of Subjects Who Worsened from Baseline: Daily Urgency ([1]; Weeks 7-8, 2 mg TID): 4%
Percentage of Subjects Who Worsened from Baseline: Daily Abdominal Pain ([1]; Weeks 9-10, 2 mg TID): 4%
Percentage of Subjects Who Worsened from Baseline: Daily Urgency ([1]; Weeks 9-10, 2 mg TID): 6%
Percentage of Subjects Who Worsened from Baseline: Daily Abdominal Pain ([1]; Weeks 11-12, 2 mg TID): 7%
Percentage of Subjects Who Worsened from Baseline: Daily Urgency ([1]; Weeks 11-12, 2 mg TID): 4%
Percentage of Subjects Who Worsened from Baseline: Daily Abdominal Pain ([1]; Weeks 13-26, 2 mg TID): 6-8%
Percentage of Subjects Who Worsened from Baseline: Daily Urgency ([1]; Weeks 13-26, 2 mg TID): 5-8%
Subjects worsened from Baseline, daily abdominal pain ([1]; Weeks 1-2): 13%
Subjects worsened from Baseline, daily urgency ([1]; Weeks 1-2): 7%
Bloating or abdominal distention score, change from Baseline at end of treatment ([1]; in vivo): −0.75
Daily abdominal pain/discomfort score, change from Baseline at end of treatment ([1]; in vivo): −0.92
Daily stool consistency score, change from Baseline at end of treatment ([1]; in vivo): −1.40
Daily urgency score, change from Baseline at end of treatment ([1]; in vivo): −0.80
Feeling of incomplete evacuation, change from Baseline at end of treatment ([1]; in vivo): −0.25
Mean stool consistency score at end of treatment ([1]; in vivo): 4.27
Mean straining, change from Baseline at end of treatment ([1]; in vivo): 0.06
Pain-free days at end of treatment ([1]; in vivo): 0.29
Stools per day, change from Baseline at end of treatment ([1]; in vivo): −1.60
Urgency-free days at end of treatment ([1]; in vivo): 0.08
Median rate of pain-free days ([1]; six-month period): 0.19
Median rate of urgency-free days ([1]; six-month period): 0.07
Subjects worsened from Baseline, IBS-QOL Overall Score ([2]; Month 3): 5%
Percentage of Subjects Who Worsened from Baseline: IBS-QOL Overall Score ([2]; Endpoint (last post-Baseline overall score)): 6%
Percentage of Subjects Who Worsened from Baseline: IBS-QOL Overall Score ([2]; Month 3): 5%
IBS-QOL body image, treatment difference ([2]; vs placebo): 7.43
IBS-QOL dysphoria, treatment difference ([2]; vs placebo): 7.34
IBS-QOL food avoidance, treatment difference ([2]; vs placebo): 8.92
IBS-QOL health worry, treatment difference ([2]; vs placebo): 3.21
IBS-QOL interference with activity, treatment difference ([2]; vs placebo): 9.73
IBS-QOL overall score, treatment difference in mean change from Baseline at Endpoint ([2]; vs placebo): 7.37
IBS-QOL relationships, treatment difference ([2]; vs placebo): 5.19
IBS-QOL sexual, treatment difference ([2]; vs placebo): 5.64
IBS-QOL social reaction, treatment difference ([2]; vs placebo): 6.19
Subjects “not at all or rarely” bothered by IBS symptoms ([3]; Endpoint): 42%
Subjects worsened from Baseline, interruption of activities ([3]; Month 1): 8%
Percentage of Subjects Who Worsened from Baseline: Interruption of Activities ([3]; Month 1): 8%
Percentage of Subjects Who Worsened from Baseline: Interruption of Activities ([3]; Month 2): 5%
Percentage of Subjects Who Worsened from Baseline: Interruption of Activities ([3]; Month 3): 4%
